Experimental data: paper PMC12171319, “3‐Oxabicyclo[3.1.1]heptane as an Isostere of meta‐Benzene” (Angewandte Chemie (International Ed. in English), 2025)
Converted amounts (≈) assume the structure as drawn. Where two headings read alike, the source gives them in different places.

How the values were obtained:
[1] = Metabolic stability in human liver microsomes; format: in vitro ADME; conditions: both sexes, human
Experimental: 9. Metabolic Stability in Human Liver Microsomes
The objective of this study was to determine the metabolic stability of 3 test articles (EN300- […]
in human liver microsomes at five-time points over 40 minutes using HPLC-MS. Metabolic stability is defined as the percentage of parent compound lost over time in the presence of a metabolically active test system.
Potassium phosphate monobasic (Bio-Basic, Canada; Lot #N9016010)
Potassium phosphate dibasic (Bio-Basic, Canada; Lot #MA7100050) […]
Glucose-6-phosphate dehydrogenase from baker's yeast, type XV (Sigma-Aldrich, USA; Cat […]
D-Glucose-6-phosphate sodium salt (Sigma-Aldrich, USA; Cat #G7879-1G)
NADPH tetrasodium salt (BLD Pharmatech Ltd., Cat #BD116582)
Verapamil hydrochloride (Sigma Aldrich, USA; Cat #V4629)
Niclosamide (Sigma-Aldrich, USA; Cat #N3510)
DMSO stock solutions of the tested compounds 20 mM
Gradient HPLC system (Shimadzu)
Triple quadrupole mass-detector API 3000 with TurboIonSpray Ion Source (AB Sciex, Canada) […]
Multichannel pipettors 1-30 µL, 2-125 µL, 30-850 µL (Thermo Scientific) […]
All measurements were performed using the Shimadzu HPLC system including vacuum degasser, gradient pumps, reverse phase HPLC column, column oven, and autosampler. Mass spectrometric analysis was performed using an API 3000 mass spectrometer from Applied Biosystems/MDS Sciex (AB Sciex) with Turbo V ion source and TurboIonspray interface. The […]
and system control were performed using Analyst 1.6.3 software from AB Sciex.
Microsomal incubations were carried out in 96-well plates in 5 aliquots of 30 μL each (one for each time point). Liver microsomal incubation medium comprised of phosphate buffer (100 mM, pH 7.4), MgCl2 (3.3 mM), NADPН (3 mM), glucose-6-phosphate (5.3 mM), glucose-6-phosphate dehydrogenase (0.67 units/mL) with 0.42 mg of liver microsomal protein per mL. In the control reactions, the NADPH-cofactor system was substituted with phosphate buffer. Test compounds […]
100 rpm. Five-time points over 40 minutes were analyzed. The reactions were stopped by adding 5 volumes of acetonitrile with internal standard to incubation aliquots, followed by protein sedimentation by centrifuging at 5500 rpm for 5 min. Each reaction was performed in duplicates.
Supernatants were analyzed using the HPLC system coupled with a tandem mass spectrometer.
The elimination constant (kel), half-life (t1/2), and intrinsic clearance (Clint) were determined in a plot of […] versus time, using linear regression analysis:1
1 In order to indicate the quality of the linear regression analysis, the R2 (determination coefficient) values are provided.
In some cases, the last time point is excluded from the calculations to ensure acceptable logarithmic linearity of decay.

[2] = in vitro; conditions: human; for Papp A→B at 90 min, 10 µM: Caco-2, pH 7.4, Papp (AB); for Papp B→A at 90 min, 10 µM: Caco-2, pH 7.4, Papp (BA)
[3] = system: Hedgehog signaling pathway; conditions: Mus musculus
[4] = Table S5, 2nd batch
[5] = physchem
[6] = Kinetic solubility in phosphate-buffered saline, pH 7.4; format: physicochemical; conditions: 25 °C, pH 7.4, aqueous buffer, kinetic from dmso stock; for solubility at 2 h: PBS solubility
Experimental: page 239: 7. […] The data […] analysis software. […] page 240: Methods Kinetic solubility assay was performed according to Enamine's aqueous solubility SOP. Briefly, […] theoretical concentration of 400 μM in duplicates in phosphate-buffered saline pH 7.4 […] The experimental compound dilutions in PBS were further allowed to equilibrate at 25 °C on a thermostatic shaker for two hours and then filtered through HTS filter plates using a vacuum manifold. The filtrates of test […] prepared to theoretical concentrations of 0 μM (blank), 10 μM, 25 μM, 50 μM, 100 μM, and 200 […] Ondansetron was used as a reference compound to control proper assay performance. 200 μL of each sample was transferred to a 96-well plate and measured in the 230-550 nm range with a 5 nm step. The concentrations of compounds in PBS filtrate are calculated using a dedicated Microsoft Excel calculation script. Proper absorbance wavelengths for calculations are selected for each compound manually based on absorbance maximums (absolute absorbance unit values for the minimum and maximum concentration points within the 0 - 3 OD range). Each final dataset is visually evaluated by the operator, and goodness of fit (R2) is calculated for each calibration curve. […] close to the upper limit of the range may have higher actual solubility (e.g. 5'-deoxy-5- fluorouridine). The calibration curves are shown in Appendix*. […] Compound ID PBS solubility, pH 7.4, μM SE […] Ondansetron 128 126 127** 1.1 EN300-7362818 6 6 6 0.2 (Sonidegib) BCHep-Sonidegib (50) 5 3 4 0.9 Table S3. 2nd batch PBS solubility, pH 7.4, μM Compound ID SE […] Ondansetron 124 124 124** 0.1 EN300-45381956 (51) 34 34 34 0.2 *Goodness of fit (R2) in all titration curves as well as the variations between repeat measurements indicates a high quality of the experimental data in the current batch of test articles. **Ondansetron solubility data are consistent with those previously obtained. […]

With `CC1CN(c2ccc(NC(=O)C34COCC(c5ccc(OC(F)(F)F)cc5)(C3)C4)cn2)CC(C)O1` (stereo not shown) [Compound 51] the remaining at 40 min, 2 µM ([1]; human liver microsomes, pH 7.4, Table S7, 2nd batch, no NADPH, read-out: % Remaining without cofactor, Mean of 2) was 104%, the half-life at 2 μM ([1]; human liver microsomes, pH 7.4, human liver microsomes, read-out: t1/2: experimental half-time of a metabolic decomposition) was 1.02 h and the k el at 2 µM ([1]; human liver microsomes, pH 7.4, Table S7, 2nd batch) was 0.000183 s⁻¹. For the same compound, the half-life at 2 μM ([1]; human liver microsomes, pH 7.4, Table S7, 2nd batch, read-out: t1/2) was 1.01 h, the microsomal CLint at 2 μM ([1]; human liver microsomes, pH 7.4, read-out: CLint: experimental metabolic stability in human liver microsomes) was 28 µL/min/mg and the remaining at 7 min, 2 µM ([1]; liver microsomes, pH 7.4, Table S7, 2nd batch, 7 min, 2 µM) was 96%. For the same compound, the remaining at […], 2 µM ([1]; liver microsomes, pH 7.4, Table S7, 2nd batch, 15 min, 2 µM) was 89%, the remaining at 25 min, 2 µM ([1]; liver microsomes, pH 7.4, Table S7, 2nd batch, 25 min, 2 µM) was 77% and the remaining at 40 min, 2 µM ([1]; liver microsomes, pH 7.4, Table S7, 2nd batch, 2 µM, read-out: % Remaining, Mean of 2) was 64%. For the same compound, the efflux ratio at 90 min, 10 µM ([2]; Caco-2, pH 7.4) was 1.5, the Papp A→B at 90 min, 10 µM ([2]; Mean) was 5.4 ×10⁻⁶ cm/s and the Papp A→B at 90 min, 10 µM ([2]; replicate 1) was 6.3 ×10⁻⁶ cm/s. For the same compound, the Papp A→B at 90 min, 10 µM ([2]; replicate 2) was 4.5 ×10⁻⁶ cm/s, the Papp B→A at 90 min, 10 µM ([2]; Mean) was 8 ×10⁻⁶ cm/s and the Papp B→A at 90 min, 10 µM ([2]; replicate 1) was 7.3 ×10⁻⁶ cm/s. The Papp B→A at 90 min, 10 µM ([2]; replicate 2) was 8.7 ×10⁻⁶ cm/s, the recovery at 90 min, 10 µM ([2]; Caco-2, pH 7.4, Recovery A-B in presence of Verapamil, Mean) was 51% and the recovery at 90 min, 10 µM ([2]; Caco-2, pH 7.4, Recovery A-B in presence of Verapamil, replicate 1) was 53%. It also gave a recovery at 90 min, 10 µM ([2]; Caco-2, pH 7.4, Recovery A-B in presence of Verapamil, replicate 2) of 49%, a recovery at 90 min, 10 µM ([2]; Caco-2, pH 7.4, Recovery A-B, Mean) of 43% and a recovery at 90 min, 10 µM ([2]; Caco-2, pH 7.4, Recovery A-B, replicate 1) of 44%. For the same compound, the recovery at 90 min, 10 µM ([2]; Caco-2, pH 7.4, Recovery A-B, replicate 2) was 43%, the recovery at 90 min, 10 µM ([2]; Caco-2, pH 7.4, Recovery B-A in presence of Verapamil, Mean) was 77% and the recovery at 90 min, 10 µM ([2]; Caco-2, pH 7.4, Recovery B-A in presence of Verapamil, replicate 1) was 69%. It also gave a recovery at 90 min, 10 µM ([2]; Caco-2, pH 7.4, Recovery B-A in presence of Verapamil, replicate 2) of 86%, a recovery at 90 min, 10 µM ([2]; Caco-2, pH 7.4, Recovery B-A, Mean) of 70% and a recovery at 90 min, 10 µM ([2]; Caco-2, pH 7.4, Recovery B-A, replicate 1) of 71%. For the same compound, the recovery at 90 min, 10 µM ([2]; Caco-2, pH 7.4, Recovery B-A, replicate 2) was 69%, the IC50 ([3]; NIH3T3, read-out: IC50 (HH signal): inhibition of the Hedgehog signaling pathway, Gli reporter NIH3T3 cell line) was 96 nM and the IC50 ([3]; NIH3T3, read-out: pIC50, Hedgehog signaling pathway, experiment with EN300-45381956 (51) (converted), calculated from IC50) was 100 nM. The D ([4]; incubation 1) was 7.16E+04, the D ([4]; incubation 2) was 6.24E+04 and the D ([4]; incubation 3) was 6.33E+04. For the same compound, the logD at 1 h ([5]; pH 7.4, LogD, pH 7.4) was no less than 4.5, the logD at 1 h ([5]; pH 7.4, LogD, pH 7.4 (overall of 3 incubations)) was no less than 4.5 and the logD at 1 h ([5]; pH 7.4, logD (7.4): experimental distribution coefficient in n-octanol/phosphate-buffered saline, pH 7.4) was no less than 4. It also gave a solubility kinetic at 2 h [6] of 34 µM (≈ 16.7 µg/mL), a solubility at 2 h ([6]; pH 7.4, Incubation 1) of 34 µM (≈ 16.7 µg/mL) and a solubility at 2 h ([6]; pH 7.4, Incubation 2) of 34 µM (≈ 16.7 µg/mL). For the same compound, the solubility at 2 h ([6]; pH 7.4, Mean) was 34 µM (≈ 16.7 µg/mL).
